# Results taken from a melting point compilation (Tetko et al.; mined from patent text by program, amines drawn as free bases though some values may be those of a salt).
row,SMILES,melting point [°C]
1,CONS(=O)(=O)c1ccc(Cl)c([N+](=O)[O-])c1,69.5 to 71
2,CC(C)C(C)(C(=O)NCCc1ccccn1)C(C)C,60 to 61
3,O=C(O)CCC(Cc1ccccc1Cl)(C(=O)C=Cc1c(Cl)cccc1Cl)c1ccccc1 (stereo not given),140 to 143
4,CCC1(CC)c2cc(-c3nc4ccccc4s3)ccc2-c2ccc(N(c3cccc(Oc4ccc([N+](=O)[O-])cc4)c3)c3cccc(Oc4ccc([N+](=O)[O-])cc4)c3)cc21,200 to 201
5,O=C1NC2CCCCN2C12CCNCC2 (stereo not given),193
6,COC[C@]12CCC(=O)C=C1CC[C@@H]1[C@@H]2CC[C@]2(C)[C@@H](C(=O)CO)CC[C@@H]12,148 to 149
7,Clc1ccc2c(c1)C=C(n1ccnc1)CO2,118 to 120
8,C=C(C)Cn1c(=O)n(C)c(=O)c2cc(Cc3ccc(OC)cc3)sc21,111
9,CCc1cccc(CC)c1NC(=O)C1c2ccccc2COc2ccc(C(C)C)cc21 (stereo not given),170
10,COc1cc(/C=C/c2ccc(F)cc2)cc(OC)c1,46 to 48
11,N#Cc1cn(Cc2c(F)cccc2F)nn1,116
12,CCOC(=O)C(=O)Nc1cc(O)ccc1O,> 300
13,CCC(=O)Nc1cccc(-c2ccc(=O)[nH]n2)c1,229 to 230
14,CCOC(=O)CC(=O)CCCn1cncn1,114 to 116
15,CCOc1nc(N)nc2c1CCC2,134 to 135
16,Oc1cc(Cl)ccc1Oc1ccccc1-c1ncon1,124 to 125
17,CCCOc1c(OC)cc(C=O)cc1S(=O)(=O)CCO,111 to 112
18,O=C1OC(COc2ccc(CCCO)cc2)CN1c1ccc(Cl)cc1 (stereo not given),119 to 120
19,O=C(C=Cc1cccnc1)c1ccccc1OCc1ccccc1,117 to 119
20,COC(=O)CCCOc1ccccc1I,66.5 to 67
21,Cc1ccccc1C1SCCCN1C(=S)Nc1cccc(Cl)c1 (stereo not given),134 to 136
22,COc1cc(C)nc(NCn2cncn2)n1,191 to 193
23,CC(/C=C/c1c(C)sc(C)c1C)=C(F)\C=C\C(C)=C\C(N)=O,212 to 215
24,COCC(=O)N1CCc2nc3ccccc3c(C)c2CC1,116

row,SMILES,melting point [°C]
1,O=C(NCCO)c1ccnc(-c2cccc3cc(Cc4cc(F)cc(Cl)c4)sc23)c1,172 to 173
2,CCOC(=O)c1csc(-c2ccc3nc(CC(C)C)c(CN)c(-c4ccc(C)cc4)c3c2)n1,150 to 152
3,CC(C)c1cccc(C(C)C)c1OC(=O)NP(=O)(Oc1ccccc1)Oc1ccccc1,132 to 135
4,O=c1oc2ccc(-c3ccc(F)cc3F)cc2c(=O)n1-c1ccc(C(F)(F)F)cc1,209 to 210
5,CC(C)(C)S(=O)(=O)c1cccc(-c2nc(=O)c3ccccc3s2)n1,234 to 235
6,COc1ccc(C)c(NC(=O)CC2C3CC4CC(C3)CC2C4)c1 (stereo not given),193 to 196
7,O=C1CCCc2nc3sccc3c(NCc3ccccc3)c21,159 to 160
8,CCOC(=O)/C=C(\C)c1ccc(C2COc3c(C)c(C)c(NC(=O)CC(C)(C)C)c(C)c32)cc1 (stereo not given),179 to 180
9,CN(C)c1ccccc1CS(=O)c1cnc2ccccc2n1 (stereo not given),114 to 115
10,NS(=O)(=O)c1cccc(NC(=O)Nc2c(F)c(F)c(F)c(F)c2F)c1,224 to 227
11,O=[N+]([O-])c1ccc(NC2CC2)nc1Nc1ccc2[nH]ncc2c1,237 to 240
12,COC(=O)/C=C/[C@H]1[C@@H](C(=O)OCc2cnc(Oc3ccccc3)s2)C1(C)C,62
13,CCOC(=O)C(Cl)=Cc1cc([N+](=O)[O-])ccc1Cl,91
14,CS(=O)(=O)NC(=O)CCCC[C@H]1CCSS1,71 to 73
15,O=C(NCC(=O)N1CCC(=C2c3ccccc3C=Cc3ccccc32)CC1)OCc1ccccc1,142 to 144
16,CC(=O)c1ccc(Oc2ccc(S(=O)(=O)C3CCCCC3)cn2)cc1,116 to 118
17,Clc1ccc2c(c1)C(c1ccccc1)=NCc1nnc(CNCC3CC3)n1-2,154 to 157
18,COC(=O)c1c(OC(=O)N(c2ccccc2)c2ccccc2)cc(C(F)(F)F)nc1C(F)(F)F,114 to 116
19,CS(=O)(=O)Nc1ccc(F)cc1OCCCN1CCC(OC(c2ccccc2)c2ccccc2)CC1,52 to 56
20,Cc1ccc2nc(-c3cc(C(F)(F)F)nn3-c3ccc(S(C)(=O)=O)cc3)sc2c1,202 to 204
21,CC(C)(C)c1cc(OCc2ccccc2C(=O)Nc2nnn[nH]2)cc(C(C)(C)C)c1,251 to 254
22,COc1ccc(S(N)(=O)=O)cc1C(=O)C(C)Br (stereo not given),108 to 110
23,CC(C(=O)O)c1ccc2c(c1)C(=O)Cc1cc(F)ccc1S2 (stereo not given),213 to 214
24,N=C1C2CC(F)CN2C(=O)CN1C1CCC(Cn2cncn2)C1 (stereo not given),158 to 162

row,SMILES,melting point [°C]
1,COC(=O)c1ccc2c(c(C)nn2C)c1C(=O)NC(C)(C(N)=O)C(C)C (stereo not given),221 to 222
2,CC(C)(C)NC(=O)N1Cc2c(-c3ccc(F)cc3)ncn2-c2ccccc21,241 to 244
3,CC(C)c1nc(CCN(C)C(=O)N[C@H](C(=O)N[C@@H](Cc2ccccc2)C[C@H](O)[C@H](Cc2ccccc2)NC(=O)OCc2cncs2)C(C)C)cs1,62 to 63
4,CCc1nn(-c2c(Cl)cc(C(F)(F)F)cc2Cl)c(CC)c1Cc1c(OC)ccc2ccccc12,96 to 98
5,CCOc1ncc(C(C)=O)cc1C(=O)OC,111 to 112
6,COC(=O)Nc1cccc2c1C(=O)C1(O)c3ccc(C(C)C)cc3OC21O (stereo not given),96 to 99
7,Cc1c(Cc2ccc(C(C)C)cc2)c2c(c(C)c1NC(=O)CC(C)(C)C)CC(C)(CO)O2 (stereo not given),186 to 187
8,CCC1CCC2(C)C(=CCC3C4CCC(=O)C4(C)CCC32)C1 (stereo not given),73 to 75
9,Cc1oc(-c2ccccc2)nc1COc1ccc(CO)cn1,121 to 122
10,CS(=O)c1nnc2c(=O)c3ccccc3ccn12 (stereo not given),208 to 211
11,CCC(Oc1cccc(C(F)(F)F)n1)C(=O)O (stereo not given),91
12,O=c1c2c(cnn1-c1ccccc1)C(Cc1ccccc1)NCCS2 (stereo not given),174 to 175
13,CC[C@@H]1N(c2ccc(C#N)c(Cl)c2C)C(=O)C[C@]1(C)O,156 to 158
14,O=C(O)COc1ccc(C(=O)CCN2CCN(c3ccncc3)CC2)cc1,238 to 239
15,CN(C)C=CC(=O)c1cccc(OCC(O)CN2CCN(c3ccc(Cl)cc3)CC2)c1 (stereo not given),144 to 145
16,Cc1c(F)cc(C(=O)NC(C)C(C)C)cc1-c1ccc(C(=O)NCC(C)(C)C)cc1C(=O)Nc1nccs1 (stereo not given),234 to 239
17,CN(C)CCCOc1ccc(-c2nnc(CSCCOc3ccccc3)o2)nc1,47 to 49
18,CC(C)OC(=O)c1cc(-n2c(=O)n3n(c2=S)COCC3)c(F)cc1Cl,67 to 69
19,Cc1ccc(-c2ccc3c(c2)C=C(C(=O)Nc2ccc(CNc4ccccn4)cc2)CCO3)cc1,189 to 190
20,Cc1noc(-c2ccc(S(C)(=O)=O)cc2)c1-c1ccc(-c2cscn2)cc1,119
21,CC(=O)Nc1nc2c(nc(NC(C)=O)n2Cc2cccs2)c(=O)[nH]1,243 to 244
22,CCN(C(=O)c1cnc(N2CC(C)(C)NC2=O)nc1N)c1cccc(C(F)(F)F)c1,186 to 187
